Results on 15 compounds are retold here after patent US5128362A, “1-aminomethyl-1,2,3,4-tetrahydronaphthalenes” (Abbott Laboratories, priority 1990, dated 1992).

For test [1], the target named is T1, alpha 2 receptor (Rattus norvegicus, UniProt P22909).
T1 construct: rat cerebral cortices; from tissue; host or cells: rat cerebral cortices
T1 sequence (P22909 1-465): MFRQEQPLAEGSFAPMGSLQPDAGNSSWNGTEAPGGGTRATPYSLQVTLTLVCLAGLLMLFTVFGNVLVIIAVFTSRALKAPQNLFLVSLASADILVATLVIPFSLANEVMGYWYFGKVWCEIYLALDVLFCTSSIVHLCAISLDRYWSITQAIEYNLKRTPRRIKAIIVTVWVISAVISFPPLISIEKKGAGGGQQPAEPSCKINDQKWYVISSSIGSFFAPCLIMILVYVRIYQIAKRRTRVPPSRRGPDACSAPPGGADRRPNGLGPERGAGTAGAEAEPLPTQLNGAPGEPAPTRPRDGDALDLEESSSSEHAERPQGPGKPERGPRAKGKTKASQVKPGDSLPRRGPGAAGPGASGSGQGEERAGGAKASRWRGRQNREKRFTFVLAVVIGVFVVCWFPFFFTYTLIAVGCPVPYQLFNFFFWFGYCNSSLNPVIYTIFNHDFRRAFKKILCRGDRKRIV
The test can be described thus: Radioligand binding, [3H]rauwolscine, rat cerebral cortices. To be noted: read-out: Ki alpha-2. Here is the method:
(§1) The compounds were assessed for alpha-adrenergic receptor subtype selectivity by use of radioligand binding techniques as described previously (DeBernardis et. al. J. Med. Chem. 28, 1398 (1985)).

Test [2] deals with alpha 2 receptor. The test is described as above. The following applies: Ki alpha 1/Ki alpha-2. Here is the method: as §1
Test [3] concerns the target T2, alpha 1 receptor (Rattus norvegicus, UniProt P15823).
T2 construct: rat liver homogenates; from tissue; host or cells: rat liver homogenates
T2 sequence (P15823 1-515): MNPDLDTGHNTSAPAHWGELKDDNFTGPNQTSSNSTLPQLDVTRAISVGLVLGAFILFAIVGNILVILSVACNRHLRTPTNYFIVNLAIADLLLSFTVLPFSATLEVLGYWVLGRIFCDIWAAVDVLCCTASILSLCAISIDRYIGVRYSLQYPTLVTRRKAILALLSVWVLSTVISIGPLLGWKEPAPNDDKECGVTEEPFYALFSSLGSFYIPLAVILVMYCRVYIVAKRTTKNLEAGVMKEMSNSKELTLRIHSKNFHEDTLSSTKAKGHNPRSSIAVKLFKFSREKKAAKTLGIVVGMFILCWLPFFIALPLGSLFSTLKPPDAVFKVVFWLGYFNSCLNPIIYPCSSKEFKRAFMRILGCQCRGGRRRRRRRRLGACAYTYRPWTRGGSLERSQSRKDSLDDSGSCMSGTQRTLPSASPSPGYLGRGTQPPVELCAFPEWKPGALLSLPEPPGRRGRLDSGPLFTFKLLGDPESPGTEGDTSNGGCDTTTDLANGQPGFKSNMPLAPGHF
The test can be described thus: Radioligand binding, [3H]-prazosin, rat liver homogenates. The protocol: as §1

Test [4] concerns norepinephrine uptake. The test can be described thus: Uptake inhibition, tritiated norepinephrine, rat brain synaptosomes. It is filed as biochemical, Sprague-Dawley derived rats. The following applies: 0.1 μM tritiated amine, 37° C., 4 minutes, read-out: Biogenic Amine Uptake Inhibition IC50 Norephinephrine. From the text:
(§2) Sprague-Dawley derived rats of either sex, weighing about 180-250 g, were killed by decapitation. The brains were immediately removed, placed on a glass plate chilled over crushed ice and dissected according to a modification of the method of Glowinski and Iversen (J. Neurochem. 13, 655-669, 1966). First, the rhombencephalon was separated by transverse section and discarded. The remaining tissue was bisected by a midline sagittal cut. The hypothalamus was removed using the anterior and posterior reference points, respectively. The hippocampus was peeled away and discarded and the striata were exposed and removed. Frontal cortical tissue was dissected from remaining brain structures. […]
(§3) Uptake studies were conducted according to the method of Synder and Coyle (J. Pharmacol. Exp. Ther. 165, 78-86, 1969) with minor modifications. Usually a 0.1 ml aliquot of the synaptosomal preparation was incubated in a mixture of 0.75 ml of modified Krebs-Ringer buffer, 0.05 ml of the drug being evaluated for uptake inhibition, and 0.1 ml of a 1 μM tritiated amine (norepinephrine, serotonin or dopamine) solution (final concentration 0.1 μM) for a total volume of 1 ml. […] All samples were cold and dark adapted and counted in a Tri-Carb® (Packard) Model 460 Liquid Scintillation Spectrometer. Corrections were automatically made for quenching by the external standard method and for luminescence. […]

Test [5] concerns serotonin uptake. The test can be described thus: Uptake inhibition, tritiated serotonin, rat brain synaptosomes. Format: biochemical, Sprague-Dawley derived rats. The following applies: 0.1 μM tritiated amine, 37° C., 4 minutes, read-out: Biogenic Amine Uptake Inhibition IC50 Serotonin.
Text: as §2, §3

For test [6], the system named is dopamine uptake. Briefly: Uptake inhibition, tritiated dopamine, rat brain synaptosomes. It is filed as biochemical, Sprague-Dawley derived rats. To be noted: 0.1 μM tritiated amine, 37° C., 4 minutes, read-out: Biogenic Amine Uptake Inhibition IC50 Dopamine.
Text: as §2, §3

Structures are written as SMILES. Structures can show the parent of a compound that is named as a salt. Where two headings read alike, the source gives them in different places.

Broadly, the Ki is a dissociation constant, usually derived from enzyme kinetics or from competition with a known ligand. For `CN(c1ccc2c(c1)CCCC2CN1CCC(c2ccccc2)C1)S(C)(=O)=O` (centres unmarked) [Example 193, 6-(N-methylmethylsulfonamido)-1-(3-phenylpyrrolidino-1-methyl)tetralin hydrochloride], in test [1], the inhibitory constant (Ki) came out at 1.3 nM. Moreover, the “alpha-2 - Selectivity Ki alpha 1/Ki alpha-2” value in test [2] stood at 93.

As to `c1ccc(C2CCN(CC3CCCc4c3ccc3c4OCO3)C2)cc1` (centres unmarked) [Example 143a, 5,6-Methylenedioxy-1-(3-phenylpyrrolidino-1-methyl) tetralin methanesulfonate], in test [1], the inhibitory constant (Ki) came out at 1.2 nM. Besides, the “alpha-2 - Selectivity Ki alpha 1/Ki alpha-2” value in test [2] came to 43.

For the compound `CN(CCc1cccs1)CC1CCCc2c(Cl)cccc21` (centres unmarked) [Example 129, 1-((N-Methylamino)methyl-N-(2-(2-thieny)ethyl))-5-chloro tetralin hydrochloride], in test [1], the Ki worked out at 3.6 nM. Also, the “alpha-2 - Selectivity Ki alpha 1/Ki alpha-2” value in test [2] is on record as 55.

As for `COc1ccc2c(c1)CCCC2CN(C)CCC1CCCS1` (centres unmarked) [Example 6h, 1-((N-methylamino)methyl-N-(2-(2-tetrahydrothienyl)ethyl)) 6-methoxy tetralin hydrochloride], the inhibition constant Ki in test [1] worked out at 3.5 nM. Also, the “alpha-2 - Selectivity Ki alpha 1/Ki alpha-2” value in test [2] worked out at 430.

For the compound `COc1ccc2c(c1)CCC2CN1CCC(c2cccc(F)c2)C1` (centres unmarked) [Example 153, 5-Methoxy-1-(3-(m-fluorophenyl)pyrrolidino-1-methyl) indane hydrochloride], the Ki in test [1] came out at 8.6 nM. Also, in test [2], the “alpha-2 - Selectivity Ki alpha 1/Ki alpha-2” value was determined as 7.

With `COc1ccc2c(c1)CCC2CN1CCC(c2ccccc2)C1` (centres unmarked) [Example 152, 5-Methoxy-1-(3-phenylpyrrolidino-1-methyl) indane hydrochloride], the inhibition constant Ki in test [3] amounted to 51 nM; in test [1] (rat cerebral cortices, [3H]rauwolscine) it was 4.8 nM. Further, the “alpha-2 - Selectivity Ki alpha 1/Ki alpha-2” value in test [2] worked out at 11.

Take `CN(CCc1cccc(F)c1)CC1CCCc2c1ccc1c2OCCO1` (centres unmarked) [Example 167, 1-((N-Methylamino)methyl-N-(2-m-fluorophenethyl))-5,6-ethylenedioxy tetralin methanesulfonate]: the Ki in test [1] came to 4.2 nM. The “alpha-2 - Selectivity Ki alpha 1/Ki alpha-2” value in test [2] came to 85.

Turning to `COc1ccc(C)c2c1CCCC2CN(C)CCc1cccs1` (centres unmarked) [Example 36, 1-((N-Methylamino)methyl-N-(2-(2-thienyl)ethyl))-5-methoxy-8-methyl tetralin hydrochloride], the Ki in test [1] stood at 6.9 nM. Further, in test [2], the “alpha-2 - Selectivity Ki alpha 1/Ki alpha-2” value is on record as 95.

By IC50 is commonly meant the concentration at which inhibition is half-maximal. In the case of `Fc1cc2c(c3c1C(CN1CCC(c4ccccc4)C1)CCC3)OCO2` (centres unmarked) [Example 160, 8-Fluoro-5,6-methylenedioxy-1-(3-phenylpyrrolidino-1-methyl) tetralin hydrochloride], the IC50 in test [4] came to 991 nM; in test [5], 1840 nM; in test [6] it was 2930 nM.

For `CCOc1ccc2c(c1)CCCC2CN(C)CCc1cccc(N)c1` (centres unmarked) [Example 69, 1-((N-Methylamino)methyl-N-(2-(m-aminophenyl)ethyl))-6-ethoxy tetralin dihydrochloride], the Ki in test [1] came to 13 nM. The “alpha-2 - Selectivity Ki alpha 1/Ki alpha-2” value in test [2] is given as 98.

As to `Nc1ccc2c(c1)CCCC2CN1CCC(c2ccccc2)C1` (centres unmarked) [Example 156, 6-Amino-1-(3-phenylpyrrolidino-1-methyl) tetralin dihydrochloride], the Ki in test [1] is 6 nM. The “alpha-2 - Selectivity Ki alpha 1/Ki alpha-2” value in test [2] is reported as 21.

With `COc1ccc2c(c1)CCCC2CN1CCC(c2ccccc2)C1` (centres unmarked) [Example 121, 6-Methoxy-1-(3-phenylpyrrolidino-1-methyl) tetralin hydrochloride], the Ki in test [1] is 1 nM. The “alpha-2 - Selectivity Ki alpha 1/Ki alpha-2” value in test [2] is 95.

As to `COc1cccc2c1CCCC2CN1CCC(c2cccs2)C1` (centres unmarked) [Example 146, 5-Methoxy-1-(3-(2-thienyl)pyrrolidino-1-methyl) tetralin hydrochloride], the inhibition constant Ki in test [1] stood at 4.9 nM. In test [2], the “alpha-2 - Selectivity Ki alpha 1/Ki alpha-2” value was 35.

Turning to `Fc1ccc2c(c1)CCCC2CN1CCC(c2ccccc2)C1` (centres unmarked) [Example 148, 6-Fluoro-1-(3-phenylpyrrolidino-1-methyl) tetralin methanesulfonate], the Ki in test [1] was determined as 6.5 nM. Moreover, the “alpha-2 - Selectivity Ki alpha 1/Ki alpha-2” value in test [2] is listed as 19.

Regarding `COc1ccc2c(c1)CCC2CN1CCC(c2cccs2)C1` (centres unmarked) [Example 151, 5-Methoxy-1-(3-(2-thienyl)pyrrolidino-1-methyl) indane hydrochloride], the Ki in test [1] was determined as 2.5 nM. The “alpha-2 - Selectivity Ki alpha 1/Ki alpha-2” value in test [2] is recorded as 71.
